Tests used:
[1] = biological target: T1, SMARCA2-HiBiT HeLa cells (protein which is expressed from the SMARCA2 gene) (Homo sapiens, UniProt P51531); assay: SMARCA2 degradation assay (HiBiT-fusion HeLa cell line, 24 h, luminescence); format: cell-based
T1 construct: protein which is expressed from the SMARCA2 and SMARCA4 genes; host or cells: HeLa (SMARCA2-HiBiT engineered line)
Method in brief: (§1)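 HiBiT-fusion HeLa lines, 8,000 cells/well, overnight attachment; cpd 10-pt series (typically 10 μM–300 pM), 24 h, 37° C. Lysis with LgBiT + HiBiT substrate, 10 min shaking at RT, luminescence read. DC50 from dose-response fit; % degradation also scored at 1 μM.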

[2] = biological target: T2, SMARCA4-HiBiT HeLa cells (protein which is expressed from the SMARCA4 gene) (Homo sapiens, UniProt P51532); assay: SMARCA4 degradation assay (HiBiT-fusion HeLa cell line, 24 h, luminescence); format: cell-based
T2 construct: protein which is expressed from the SMARCA2 and SMARCA4 genes; host or cells: HeLa (SMARCA4-HiBiT engineered line)
T2 sequence (P51532 whole entry, the tested form may be a part): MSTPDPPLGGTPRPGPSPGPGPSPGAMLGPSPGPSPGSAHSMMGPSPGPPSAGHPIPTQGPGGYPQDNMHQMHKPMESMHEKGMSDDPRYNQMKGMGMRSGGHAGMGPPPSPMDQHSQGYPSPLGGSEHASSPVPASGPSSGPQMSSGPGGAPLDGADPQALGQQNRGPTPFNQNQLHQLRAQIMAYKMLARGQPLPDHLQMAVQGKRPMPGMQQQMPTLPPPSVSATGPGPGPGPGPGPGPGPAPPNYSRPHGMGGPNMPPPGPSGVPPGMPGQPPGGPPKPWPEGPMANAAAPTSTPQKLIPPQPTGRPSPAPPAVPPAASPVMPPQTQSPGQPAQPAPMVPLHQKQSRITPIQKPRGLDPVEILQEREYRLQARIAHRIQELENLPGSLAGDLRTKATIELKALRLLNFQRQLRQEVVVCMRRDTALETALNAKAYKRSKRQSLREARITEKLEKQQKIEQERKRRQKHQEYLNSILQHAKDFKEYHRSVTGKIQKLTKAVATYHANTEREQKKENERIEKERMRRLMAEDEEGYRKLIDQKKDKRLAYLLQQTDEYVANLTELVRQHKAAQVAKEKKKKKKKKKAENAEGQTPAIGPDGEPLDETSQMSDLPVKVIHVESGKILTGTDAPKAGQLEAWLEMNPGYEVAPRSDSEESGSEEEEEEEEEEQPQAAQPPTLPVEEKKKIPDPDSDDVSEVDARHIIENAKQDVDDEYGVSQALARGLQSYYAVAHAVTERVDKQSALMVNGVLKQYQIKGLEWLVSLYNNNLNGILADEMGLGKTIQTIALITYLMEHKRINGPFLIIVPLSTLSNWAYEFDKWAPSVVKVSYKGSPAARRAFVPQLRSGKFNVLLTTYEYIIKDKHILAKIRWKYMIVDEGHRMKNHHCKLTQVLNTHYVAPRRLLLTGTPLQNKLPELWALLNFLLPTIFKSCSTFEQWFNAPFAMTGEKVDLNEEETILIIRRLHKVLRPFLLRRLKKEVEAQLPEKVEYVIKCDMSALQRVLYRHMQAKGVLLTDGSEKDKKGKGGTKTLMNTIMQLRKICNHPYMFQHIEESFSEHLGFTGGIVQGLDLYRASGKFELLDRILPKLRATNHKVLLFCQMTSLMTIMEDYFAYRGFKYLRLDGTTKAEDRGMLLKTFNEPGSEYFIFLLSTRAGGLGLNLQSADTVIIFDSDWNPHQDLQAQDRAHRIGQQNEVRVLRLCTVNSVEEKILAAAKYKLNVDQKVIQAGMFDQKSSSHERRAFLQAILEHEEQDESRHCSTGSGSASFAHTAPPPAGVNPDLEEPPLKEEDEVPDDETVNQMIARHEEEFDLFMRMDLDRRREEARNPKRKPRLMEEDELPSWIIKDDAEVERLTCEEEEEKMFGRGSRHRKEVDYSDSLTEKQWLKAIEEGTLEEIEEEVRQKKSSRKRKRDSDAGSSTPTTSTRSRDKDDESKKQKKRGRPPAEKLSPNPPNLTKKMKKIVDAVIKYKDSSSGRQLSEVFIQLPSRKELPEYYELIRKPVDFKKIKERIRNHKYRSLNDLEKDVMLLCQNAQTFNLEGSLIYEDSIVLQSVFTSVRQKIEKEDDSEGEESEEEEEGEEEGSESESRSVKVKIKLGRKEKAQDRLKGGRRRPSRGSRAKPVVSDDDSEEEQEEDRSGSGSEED
Method in brief: as §1

T1 sequence (P51531 whole entry, the tested form may be a part): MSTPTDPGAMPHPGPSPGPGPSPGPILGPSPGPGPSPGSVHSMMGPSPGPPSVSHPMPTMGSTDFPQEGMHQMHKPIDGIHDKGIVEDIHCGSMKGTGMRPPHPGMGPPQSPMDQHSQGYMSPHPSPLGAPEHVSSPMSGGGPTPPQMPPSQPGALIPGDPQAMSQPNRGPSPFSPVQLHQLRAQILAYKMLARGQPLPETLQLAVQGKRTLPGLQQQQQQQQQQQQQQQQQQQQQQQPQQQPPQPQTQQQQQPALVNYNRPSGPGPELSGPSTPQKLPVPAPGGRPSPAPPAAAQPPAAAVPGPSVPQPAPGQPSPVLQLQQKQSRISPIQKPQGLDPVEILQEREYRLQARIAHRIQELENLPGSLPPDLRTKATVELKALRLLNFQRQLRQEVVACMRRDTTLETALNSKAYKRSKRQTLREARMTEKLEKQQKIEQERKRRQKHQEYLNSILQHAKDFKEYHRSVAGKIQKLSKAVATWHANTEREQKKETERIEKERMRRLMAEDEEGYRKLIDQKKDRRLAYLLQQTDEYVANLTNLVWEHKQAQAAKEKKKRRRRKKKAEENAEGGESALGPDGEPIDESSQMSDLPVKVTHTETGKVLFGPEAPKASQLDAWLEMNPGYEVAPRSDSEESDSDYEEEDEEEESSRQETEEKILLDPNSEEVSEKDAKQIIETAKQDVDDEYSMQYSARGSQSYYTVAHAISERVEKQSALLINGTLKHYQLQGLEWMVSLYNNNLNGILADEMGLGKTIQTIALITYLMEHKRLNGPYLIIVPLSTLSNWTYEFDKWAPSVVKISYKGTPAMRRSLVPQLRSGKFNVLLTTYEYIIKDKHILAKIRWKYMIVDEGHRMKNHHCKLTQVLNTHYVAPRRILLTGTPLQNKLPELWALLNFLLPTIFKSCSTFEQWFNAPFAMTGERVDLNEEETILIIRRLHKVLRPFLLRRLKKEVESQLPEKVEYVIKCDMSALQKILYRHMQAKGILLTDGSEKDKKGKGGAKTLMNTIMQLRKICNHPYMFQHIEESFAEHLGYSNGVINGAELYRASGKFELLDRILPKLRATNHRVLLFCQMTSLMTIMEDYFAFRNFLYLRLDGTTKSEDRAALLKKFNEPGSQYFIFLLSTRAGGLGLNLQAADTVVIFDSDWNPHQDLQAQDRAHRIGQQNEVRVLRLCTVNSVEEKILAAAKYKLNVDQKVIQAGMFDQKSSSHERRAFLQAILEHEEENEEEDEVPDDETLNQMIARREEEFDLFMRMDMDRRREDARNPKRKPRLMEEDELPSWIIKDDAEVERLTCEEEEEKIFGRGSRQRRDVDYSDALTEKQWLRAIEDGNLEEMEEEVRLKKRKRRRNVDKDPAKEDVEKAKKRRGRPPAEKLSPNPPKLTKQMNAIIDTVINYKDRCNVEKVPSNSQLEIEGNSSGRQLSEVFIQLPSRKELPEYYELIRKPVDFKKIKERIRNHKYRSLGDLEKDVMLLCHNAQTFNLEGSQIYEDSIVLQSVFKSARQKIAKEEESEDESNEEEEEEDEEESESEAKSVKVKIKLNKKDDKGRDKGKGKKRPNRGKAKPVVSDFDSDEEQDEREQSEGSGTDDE

SMILES | DC50 [1] | SMARCA2 % Degradation @ 1 μM ([1]; @ 1 μM) | DC50 [2] | inhibition at 1 µM ([2]; @ 1 μM) | SMARCA2 % Degradation @ 1 μM ([1]; 1 μM) | inhibition at 1 µM ([2]; 1 μM)
Nc1nnc(-c2ccccc2O)cc1N1CCC2C1CCN2c1ccnc(C#CCNC(=O)c2cc3ncccn3n2)n1 (stereo not shown) [Compound P-77, N-(3-(4-(4-(3-amino-6-(2-hydroxyphenyl)pyridazin-4-yl)hexahydropyrrolo[3,2-b]pyrrol-1(2H)-yl)pyrimidin-2-yl)prop-2-yn-1-yl)pyrazolo[1,5-a]pyrimidine-2-carboxamide] | 500 to 5000 nM | + (+=<30%) | 50 to 500 nM | 30 to 70% | – | –
CC(C)(C)OC(=O)NCC#Cc1nccc(N2CCCN(c3cc(-c4ccccc4O)nnc3N)CCC2)n1 [Compound P-304, 4-(5-{2-[3-(tert-butoxycarbonylamino)-1-propynyl]-4-pyrimidinyl}-1,5-diazocan-1-yl)-6-(o-hydroxyphenyl)-3-pyridazinamine] | 50 to 500 nM | +++ (+++=>70%) | 50 to 500 nM | – | – | –
Nc1nnc(-c2ccccc2O)cc1N1CC2CC1CN(c1ccnc(C#CCNC(=O)c3cc4ncccn4n3)n1)C2 (stereo not shown) [Compound P-17, N-(3-(4-(6-(3-amino-6-(2-hydroxyphenyl)pyridazin-4-yl)-3,6-diazabicyclo[3.2.1]octan-3-yl)pyrimidin-2-yl)prop-2-yn-1-yl)pyrazolo[1,5-a]pyrimidine-2-carboxamide] | 500 to 5000 nM | ++ (++=30-70%) | 500 to 5000 nM | 30 to 70% | – | –
Nc1nnc(-c2ccccc2O)cc1N1CC2CCC(C1)N2c1ccnc(C#CCNC(=O)c2cc3ncccn3n2)n1 [Compound P-119, N-(3-(4-(3-(3-amino-6-(2-hydroxyphenyl)pyridazin-4-yl)-3,8-diazabicyclo[3.2.1]octan-8-yl)pyrimidin-2-yl)prop-2-yn-1-yl)pyrazolo[1,5-a]pyrimidine-2-carboxamide] | > 5000 nM | + (+=<30%) | 500 to 5000 nM | < 30% | – | –
C[C@@H]1CN(c2ccnc(C#CCNC(=O)c3cc4ncccn4n3)n2)CCN1c1cc(-c2ccccc2O)nnc1N [Compound P-49, (R)-N-(3-(4-(4-(3-amino-6-(2-hydroxyphenyl)pyridazin-4-yl)-3-methylpiperazin-1-yl)pyrimidin-2-yl)prop-2-yn-1-yl)pyrazolo[1,5-a]pyrimidine-2-carboxamide] | > 5000 nM | + (+=<30%) | 500 to 5000 nM | < 30% | – | –
Nc1nnc(-c2ccccc2O)cc1N1CCCN(c2ccnc(C#CCNC(=O)NC3CC3)n2)CC1 [Compound P-324, 0-[6-amino-5-(4-{2-[3-(3-cyclopropylureido)-1-propynyl]-4-pyrimidinyl}-1,4-diazepan-1-yl)-3-pyridazinyl]phenol] | 500 to 5000 nM | ++ (++=30-70%) | 500 to 5000 nM | < 30% | – | –
C[C@@H]1CCN(c2cc(-c3ccccc3O)nnc2N)CCN1c1ccc(C(F)(F)F)c(C#CCN(C)C)n1 [Compound P-395, 0-{5-[(R)-4-{6-[3-(dimethylamino)-1-propynyl]-5-(trifluoromcthyl)-2-pyridyl}-5-methyl-1,4-diazepan-1-yl]-6-amino-3-pyridazinyl}phenol] | 500 to 5000 nM | – | > 5000 nM | – | – | –
Nc1nnc(-c2ccccc2O)cc1N1CCN(c2ccnc(C#CCNC(=O)c3cc4ncccn4n3)n2)C2CC21 (stereo not shown) [Compound P-28, N-(3-(4-(5-(3-amino-6-(2-hydroxyphenyl)pyridazin-4-yl)-2,5-diazabicyclo[4.1.0]heptan-2-yl)pyrimidin-2-yl)prop-2-yn-1-yl)pyrazolo[1,5-a]pyrimidine-2-carboxamide] | 50 to 500 nM | ++ (++=30-70%) | < 50 nM | 30 to 70% | – | –
CC1CN(c2ccnc(C#CCN)n2)CCN(c2cc(-c3ccccc3O)nnc2N)C1 (stereo not shown) [Compound P-39, 2-(6-amino-5-(4-(2-(3-aminoprop-1-yn-1-yl)pyrimidin-4-yl)-6-methyl-1,4-diazepan-1-yl)pyridazin-3-yl)phenol] | 500 to 5000 nM | + (+=<30%) | 500 to 5000 nM | < 30% | – | –
C[C@@H]1CCN(c2cc(-c3ccccc3O)nnc2N)CCN1c1nc(C#CCN2CCCC2=O)ncc1F [Compound P-203, 1-[3-(4-{(R)-4-[3-amino-6-(o-hydroxyphenyl)-4-pyridazinyl]-7-methyl-1,4-diazepan-1-y1}-5-fluoro-2-pyrimidinyl)-2-propynyl]-2-pyrrolidinone] | 50 to 500 nM | ++ (++=30-70%) | 50 to 500 nM | 30 to 70% | – | –

The remaining lines, values ahead:

DC50 [1] | SMARCA2 % Degradation @ 1 μM ([1]; @ 1 μM) | DC50 [2] | inhibition at 1 µM ([2]; @ 1 μM) | SMARCA2 % Degradation @ 1 μM ([1]; 1 μM) | inhibition at 1 µM ([2]; 1 μM) | SMILES
50 to 500 nM | ++ (++=30-70%) | < 50 nM | 30 to 70% | – | – | Nc1nnc(-c2ccccc2O)cc1N1CCN(c2ccnc(C#CCNC(=O)c3cc4ccccc4o3)n2)CC1 [Compound P-75, N-(3-(4-(4-(3-amino-6-(2-hydroxyphenyl)pyridazin-4-yl)piperazin-1-yl)pyrimidin-2-yl)prop-2-yn-1-yl)benzofuran-2-carboxamide]
50 to 500 nM | +++ (+++=>70%) | 50 to 500 nM | 30 to 70% | – | – | Cc1cnc(C#CCn2ccnc2)nc1N1CCN(c2cc(-c3ccccc3O)nnc2N)CC[C@H]1C [Compound P-227, o-{5-[(R)-4-{2-[3-(1-imidazolyl)-1-propynyl]-5-methyl-4-pyrimidinyl}-5-methyl-1,4-diazepan-1-yl]-6-amino-3-pyridaziny1} phenol]
50 to 500 nM | ++ (++=30-70%) | 50 to 500 nM | < 30% | – | – | C[C@@H]1CCN(c2cc(-c3ccccc3O)nnc2N)CCN1c1ccnc(C#CCn2cncn2)n1 [Compound P-333, 0-{5-[(R)-5-methyl-4-{2-[3-(1H-1,2,4-triazol-1-yl)-1-propynyl]-4-pyrimidinyl}-1,4-diazepan-1-y1]-6-amino-3-pyridazinyl} phenol]
< 50 nM | ++ (++=30-70%) | < 50 nM | < 30% | – | – | Nc1nnc(-c2ccccc2O)cc1N1C[C@H]2C[C@@H]1CN2c1ccnc(C#CCN2CCCCC2)n1 [Compound P-285, 0-(5-{(1R,4R)-5-[2-(3-piperidino-1-propynyl)-4-pyrimidinyl]-2,5-diazabicyclo[2.2.1]hept-2-y1}-6-amino-3-pyridazinyl)phenol]
50 to 500 nM | ++ (++=30-70%) | 50 to 500 nM | < 30% | – | – | C[C@@H]1CCC(=O)N1CC#Cc1ncc(F)c(N2CCN(c3cc(-c4ccccc4O)nnc3N)CC[C@H]2C)n1 [Compound P-175, (R)-1-[3-(4-{(R)-4-[3-amino-6-(o-hydroxyphenyl)-4-pyridazinyl]-7-methyl-1,4-diazepan-1-yl}-5-fluoro-2-pyrimidinyl)-2-propynyl]-5-methyl-2-pyrrolidinone]
< 50 nM | ++ (++=30-70%) | < 50 nM | < 30% | – | – | Nc1nnc(-c2ccccc2O)cc1N1CCN(c2ccnc(C#CCN3CCCCC3)n2)CC1 [Compound P-280, 0-(6-amino-5-{4-[2-(3-piperidino-1-propynyl)-4-pyrimidinyl]-1-piperazinyl}-3-pyridazinyl)phenol]
50 to 500 nM | ++ (++=30-70%) | < 50 nM | 30 to 70% | – | – | Cn1ccc(C(=O)NCC#Cc2nccc(N3CCN(c4cc(-c5ccccc5O)nnc4N)CC3)n2)n1 [Compound P-7, N-[3-(4-{4-[3-amino-6-(2-hydroxyphenyl)pyridazin-4-yl]piperazin-1-yl}pyrimidin-2-yl)prop-2-yn-1-yl]-1-methyl-1H-pyrazole-3-carboxamide]
50 to 500 nM | +++ (+++=>70%) | 50 to 500 nM | 30 to 70% | – | – | Cc1nccn1CC#Cc1nccc(N2CCN(c3cc(-c4ccccc4O)nnc3N)CC[C@H]2C)n1 [Compound P-186, o-{5-[(R)-5-methyl-4-{2-[3-(2-methyl-1-imidazolyl)-1-propynyl]-4-pyrimidinyl}-1,4-diazepan-1-yl]-6-amino-3-pyridazinyl}phenol]
50 to 500 nM | ++ (++=30-70%) | 50 to 500 nM | 30 to 70% | – | – | Nc1nnc(-c2ccccc2O)cc1N1CCN(c2ccnc(C#CCNC(=O)c3ccc4ccccc4n3)n2)CC1 [Compound P-64, N-(3-(4-(4-(3-amino-6-(2-hydroxyphenyl)pyridazin-4-yl)piperazin-1-yl)pyrimidin-2-yl)prop-2-yn-1-yl)quinoline-2-carboxamide]
50 to 500 nM | +++ (+++=>70%) | 50 to 500 nM | 30 to 70% | – | – | C[C@@H]1CCN(c2cc(-c3ccccc3O)nnc2N)CCN1c1ccnc(C#CCN2CCC(C#N)C2)n1 (stereo partly shown) [Compound P-245]
50 to 500 nM | +++ (+++=>70%) | 50 to 500 nM | > 70% | – | – | C/C=C/c1nccc(N2CCN(c3cc(-c4ccccc4O)nnc3N)CC[C@H]2C)n1 [Compound P-169, o-(5-{(R)-5-methyl-4-[2-(1-propenyl)-4-pyrimidinyl]-1,4-diazepan-1-yl}-6-amino-3-pyridazinyl)phenol]
50 to 500 nM | – | 50 to 500 nM | – | +++ (+++=>70%) | > 70% | C[C@@H]1CCN(c2cc(-c3ccccc3O)nnc2N)CCN1c1ccc(C#N)c(C#CCN2CCC(F)(F)CC2)n1 [Compound P-416, 6-{(R)-4-[3-amino-6-(o-hydroxyphenyl)-4-pyridazinyl]-7-methyl-1,4-diazepan-1-yl}-2-[3-(4,4-difluoro-1-piperidyl)-1-propynyl]nicotinonitrile]

From patent publication US20260265238A1, “COMPOUNDS AND PHARMACEUTICAL COMPOSITIONS THAT DEGRADE SWI/SNF-RELATED MATRIX-ASSOCIATED ACTIN-DEPENDENT REGULATOR OF CHROMATIN SUBFAMILY A” (Plexium, Inc., priority 2023, published 2026)
